Results on 24 molecules are retold here after patent US11352350B2, “IRAK degraders and uses thereof” (Kymera Therapeutics, Inc., priority 2018, dated 2022).

Like-named read-outs stand apart in the source and are kept apart here.

The test system of assay [1] is OCI-LY10. Description: CTG Cell Viability Assay - OCI-LY10. It counts as cell-based, human. To be noted: Homo sapiens, OCI-LY10, 4 days, read-out: CTG Cell Viability Assay - OCI-LY10: Average external-IC50. In short, it runs like this:
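OCI-LY10 cells exposed to 9-dose, 1:3 dilutions from 10 μM top (0.2% DMSO) for 4 days at 37° C, 5% CO2. Viability by CellTiter-Glo luminescence; IC50 from three-parameter logistic fit.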

For assay [2], the target named is IRAK4 (Homo sapiens (Human), UniProt Q9NWZ3). Description: IRAK4 MSD degradation in OCI-LY10. Format: cell-based. The settings on record: MSD. An outline of the steps:
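OCI-LY10 cells treated with 8-point 1:3 dilutions (top 1 to 10 μM final) for 4 to 24 h at 37° C. Lysate IRAK4 measured by MSD sandwich immunoassay (2H9 capture, Y279 detection, SULFO-TAG anti-rabbit). DC50 from three-parameter logistic fit.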

Where [3] appears, read: OCI-LY10, 24 hrs, read-out: IRAK4 MSD degradation in OCI-LY10 at 24 hrs: Average external-Abs DC50.
Setting [4] is: OCI-LY10, 4 hrs, read-out: IRAK4 MSD degradation in OCI-LY10 at 4 hrs: Average external-Abs DC50.

Sequence of IRAK4 (Q9NWZ3 whole entry): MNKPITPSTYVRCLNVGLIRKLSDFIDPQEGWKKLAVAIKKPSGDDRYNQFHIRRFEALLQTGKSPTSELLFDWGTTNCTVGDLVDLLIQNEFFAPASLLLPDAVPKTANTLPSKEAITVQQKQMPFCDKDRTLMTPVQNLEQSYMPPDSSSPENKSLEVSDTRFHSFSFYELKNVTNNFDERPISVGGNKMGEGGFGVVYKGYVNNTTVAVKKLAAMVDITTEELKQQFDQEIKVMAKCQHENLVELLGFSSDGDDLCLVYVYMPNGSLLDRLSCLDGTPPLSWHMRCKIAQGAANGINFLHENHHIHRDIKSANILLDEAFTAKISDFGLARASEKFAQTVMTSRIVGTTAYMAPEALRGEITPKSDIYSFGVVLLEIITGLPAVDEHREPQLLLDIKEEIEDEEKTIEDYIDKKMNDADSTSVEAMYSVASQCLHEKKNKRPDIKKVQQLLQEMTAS

On to `O=C1CCC(N2C(=O)c3cccc(NCCCOC4CCN(C[C@H]5CC[C@H](n6cc(NC(=O)c7cnn8ccc(N9CC%10(COC%10)C9)nc78)c(C(F)F)n6)CC5)CC4)c3C2=O)C(=O)N1` (stereo partly drawn) [I-364], for which the IC50 in assay [1] (OCI-Ly10, 96 h) was 50 to 100 nM. Moreover, in assay [2] (setting [3]), the DC50 lay within 10 to 100 nM.
`O=C1CCC(N2C(=O)c3cccc(NCCC4CCN(C[C@H]5CC[C@H](n6cc(NC(=O)c7cnn8ccc(N9CCOCC9)nc78)c(C(F)F)n6)CC5)CC4)c3C2=O)C(=O)N1` (stereo partly drawn) [I-365]: the IC50 in assay [1] (OCI-Ly10, 96 h) is less than 50 nM. The DC50 in assay [2] (setting [4]) was in the range of 10 to 100 nM.
For `CN(C(=O)CCCNc1cccc2c1C(=O)N(C1CCC(=O)NC1=O)C2=O)C1CCN(C[C@H]2CC[C@H](n3cc(NC(=O)c4cnn5ccc(N6C[C@H]7C[C@@H]6CO7)nc45)c(C(F)F)n3)CC2)CC1` (stereo partly drawn) [I-366], the IC50 in assay [1] (OCI-Ly10, 96 h) was less than 50 nM. In addition, in assay [2] (setting [4]), the DC50 is less than 10 nM.
On the same counts, the results for `CN(C[C@H]1CC[C@H](n2cc(NC(=O)c3cnn4ccc(N5C[C@H]6C[C@@H]5CO6)nc34)c(C(F)F)n2)CC1)C1CCN(CCNc2cccc3c2C(=O)N(C2CCC(=O)NC2=O)C3=O)CC1` (stereo partly drawn) [I-367] are 100 to 500 nM and 10 to 100 nM.
As for `CN1C(=O)CCC(N2C(=O)c3cccc(NCCCOC4CCN(C[C@H]5CC[C@H](n6cc(NC(=O)c7cnn8ccc(N9CCOCC9)nc78)c(C(F)F)n6)CC5)CC4)c3C2=O)C1=O` (stereo partly drawn) [I-368], in assay [1] (OCI-Ly10, 96 h), the IC50 was greater than 1000 nM. Further, the DC50 in assay [2] (setting [4]) is greater than 1000 nM.
In the case of `O=C1CCC(N2C(=O)c3cccc(NCCOC[C@H]4CC[C@H](n5cc(NC(=O)c6cnn7ccc(N8C[C@H]9C[C@@H]8CO9)nc67)c(C(F)F)n5)CC4)c3C2=O)C(=O)N1` (stereo partly drawn) [I-369], the IC50 in assay [1] (OCI-Ly10, 96 h) was in the range of 100 to 500 nM. The DC50 in assay [2] (setting [4]) and in assay [2] (setting [3]) was greater than 1000 nM in each case.
`O=C1CCC(N2C(=O)c3cccc(NCC4CC5(CCN(C(=O)[C@H]6CC[C@H](n7cc(NC(=O)c8cnn9ccc(N%10CCNCC%10)nc89)c(C(F)F)n7)CC6)CC5)C4)c3C2=O)C(=O)N1` (stereo partly drawn) [I-370]: the IC50 in assay [1] (OCI-Ly10, 96 h) is 100 to 500 nM. In addition, the DC50 in assay [2] (setting [4]) was in the range of 10 to 100 nM.
For `O=C1CCC(N2C(=O)c3cccc(NCCCOC4CCN(C[C@H]5CC[C@H](n6cc(NC(=O)c7cnn8ccc(N9C[C@H]%10C[C@@H]9CO%10)nc78)c(C(F)F)n6)CC5)CC4)c3C2=O)C(=O)N1` (stereo partly drawn) [I-371], the concentration for half-maximal inhibition (IC50) in assay [1] (OCI-Ly10, 96 h) is 50 to 100 nM. In addition, in assay [2] (setting [3]), the DC50 was in the range of 10 to 100 nM.
In the case of `CC[C@@H]1[C@H](F)C(=O)N[C@@H]1COc1ccc(C#C[C@H]2CC[C@H](CN3CCC4(CC3)CC(CNc3cccc5c3C(=O)N(C3CCC(=O)NC3=O)C5=O)C4)CC2)c2cc(C(N)=O)c(OC)cc12` (stereo partly drawn) [I-372], in assay [1] (OCI-Ly10, 96 h), the IC50 is less than 50 nM. Besides, the half-maximal degradation concentration (DC50) in assay [2] (setting [4]) is greater than 1000 nM.
`O=C1CCC(N2C(=O)c3cccc(NCC4CC5(CCN(C[C@H]6CC[C@H](n7cc(NC(=O)c8cnn9ccc(N%10C[C@H]%11C[C@@H]%10CO%11)nc89)c(C(F)F)n7)CC6)CC5)C4)c3C2=O)C(=O)N1` (stereo partly drawn) [I-373]: the IC50 in assay [1] (OCI-Ly10, 96 h) is less than 50 nM. For the same molecule, the DC50 is greater than 1000 nM in assay [2] (setting [4]) and 10 to 100 nM in assay [2] (setting [3]).
On the same counts, the results for `O=C1CCC(N2Cc3c(NCCOCC4CCN(C[C@H]5CC[C@H](n6cc(NC(=O)c7cnn8ccc(N9C[C@H]%10C[C@@H]9CO%10)nc78)c(C(F)F)n6)CC5)CC4)cccc3C2=O)C(=O)N1` (stereo partly drawn) [I-374] are greater than 1000 nM, greater than 1000 nM and 10 to 100 nM.
On to `O=C1CCC(N2C(=O)c3cccc(NCCCOC[C@H]4CC[C@H](n5cc(NC(=O)c6cnn7ccc(N8C[C@H]9C[C@@H]8CO9)nc67)c(C(F)F)n5)CC4)c3C2=O)C(=O)N1` (stereo partly drawn) [I-375], for which the IC50 in assay [1] (OCI-Ly10, 96 h) lay within 500 to 1000 nM. In addition, in assay [2] (setting [4]), the DC50 is greater than 1000 nM.
For `O=C1CCC(N2Cc3c(OCc4ccc(CN5CCN(C[C@H]6CC[C@H](n7cc(NC(=O)c8cnn9ccc(N%10CCOCC%10)nc89)c(C(F)F)n7)CC6)CC5)cc4)cccc3C2=O)C(=O)N1` (stereo partly drawn) [I-377], in assay [1] (OCI-Ly10, 96 h), the IC50 was less than 50 nM. Further, the DC50 in assay [2] (setting [4]) was greater than 1000 nM; in assay [2] (setting [3]), less than 10 nM.
Taken in the same sequence, the figures for `O=C1CCC(N2Cc3c(OCc4ccc(CN5CCN(C[C@H]6CC[C@H](n7cc(NC(=O)c8coc(-c9ccnc(NCC%10CC%10)c9)n8)c(C(F)F)n7)CC6)CC5)cc4)cccc3C2=O)C(=O)N1` (stereo partly drawn) [I-379] were 100 to 500 nM, greater than 1000 nM and greater than 1000 nM.
For the molecule `O=C1CCC(N2Cc3c(NCC4CCN(C[C@H]5CC[C@H](C6N=C(NC(=O)c7cnn8ccc(N9C[C@H]%10C[C@@H]9CO%10)nc78)C(C(F)F)=N6)CC5)CC4)cccc3C2=O)C(=O)N1` (stereo partly drawn) [I-380], the IC50 in assay [1] (OCI-Ly10, 96 h) is greater than 1000 nM. Also, the DC50 in assay [2] (setting [4]) lay in the range of 100 to 1000 nM; in assay [2] (setting [3]), 10 to 100 nM.
On the same counts, the results for `O=C1CCC(N2C(=O)c3cccc(NC4CC5(CCN(C[C@H]6CC[C@H](n7cc(NC(=O)c8cnn9ccc(N%10C[C@H]%11C[C@@H]%10CO%11)nc89)c(C(F)F)n7)CC6)CC5)C4)c3C2=O)C(=O)N1` (stereo partly drawn) [I-381] are 50 to 100 nM, 10 to 100 nM and less than 10 nM.
Take `O=C1CCC(N2C(=O)c3cccc(NC4CCN(CCCNC[C@H]5CC[C@H](n6cc(NC(=O)c7cnn8ccc(N9CCOCC9)nc78)c(C(F)F)n6)CC5)CC4)c3C2=O)C(=O)N1` (stereo partly drawn) [I-384]: the IC50 in assay [1] (OCI-Ly10, 96 h) is less than 50 nM. In assay [2] (setting [4]), the DC50 was in the range of 10 to 100 nM.
Take `O=C1CCC(N2C(=O)c3cccc(NCC4CCN(C[C@H]5CC[C@H](n6cc(NC(=O)c7cnn8ccc(N9CCOCC9)nc78)c(C(F)F)n6)CC5)CC4)c3C2=O)C(=O)N1` (stereo partly drawn) [I-385]: the IC50 in assay [1] (OCI-Ly10, 96 h) was less than 50 nM. Also, the 50% degradation concentration (DC50) in assay [2] (setting [4]) is greater than 1000 nM; in assay [2] (setting [3]), 10 to 100 nM.
Taken in the same sequence, the figures for `CC[C@@H]1[C@H](F)C(=O)N[C@@H]1COc1ncc(C#C[C@H]2CC[C@H](CN3CCC(OCCNc4cccc5c4C(=O)N(C4CCC(=O)NC4=O)C5=O)CC3)CC2)c2cc(C(N)=O)c(OC)cc12` (stereo partly drawn) [I-386] were less than 50 nM, 100 to 1000 nM and 10 to 100 nM.
For `CC[C@@H]1[C@H](F)C(=O)N[C@@H]1COc1ncc(C#C[C@H]2CC[C@H](CN(C)CCCOCCNc3cccc4c3C(=O)N(C3CCC(=O)NC3=O)C4=O)CC2)c2cc(C(N)=O)c(OC)cc12` (stereo partly drawn) [I-387], the IC50 in assay [1] (OCI-Ly10, 96 h) is less than 50 nM. Moreover, the DC50 in assay [2] (setting [4]) was in the range of 100 to 1000 nM.
For `CN(Cc1ccc(-n2cc(NC(=O)c3coc(-c4ccnc(NCC5CC5)c4)n3)c(C(F)F)n2)cc1)C1CCN(Cc2cccc3c2n(C)c(=O)n3C2CCC(=O)NC2=O)CC1` (stereo not drawn) [I-389], in assay [1] (OCI-Ly10, 96 h), the IC50 is less than 50 nM. Further, the half-maximal degradation concentration (DC50) in assay [2] (setting [4]) and in assay [2] (setting [3]) was 10 to 100 nM throughout.
Turning to `CN[C@@H](C)C(=O)N[C@H](C(=O)N1Cc2cc(OCCOCCOCCOCCNC[C@H]3CC[C@H](n4cc(NC(=O)c5coc(-c6ccnc(NCC7CC7)c6)n5)c(C(F)F)n4)CC3)ccc2C[C@H]1C(=O)N[C@@H]1CCCc2ccccc21)C(C)(C)C` [I-390], in assay [1] (96 h), the IC50 is greater than 1000 nM. Besides, in assay [2] (setting [4]), the DC50 is greater than 1000 nM.
With `NCC#Cc1ccc(-n2cc(NC(=O)c3coc(-c4ccnc(NCC5CC5)c4)n3)c(C(F)F)n2)cc1` [I-391, N-[l-[4-(3-aminoprop-1-ynyl)phenyl]-3-(difluoromethyl)pyrazol-4-yl]-2-[2-(cyclopropylmethylamino)-4-pyridyl]oxazole-4-carboxamide], the IC50 in assay [1] (OCI-Ly10, 96 h) was greater than 1000 nM. Further, the DC50 in assay [2] (setting [4]) and in assay [2] (setting [3]) was greater than 1000 nM throughout.
In the case of `CN(CCCOCCCNc1cccc2c1C(=O)N(C1CCC(=O)NC1=O)C2=O)Cc1ccc(-n2cc(NC(=O)c3coc(-c4ccnc(NCC5CC5)c4)n3)c(C(F)F)n2)cc1` (stereo not drawn) [I-392], the IC50 in assay [1] (OCI-Ly10, 96 h) was in the range of 100 to 500 nM. In addition, the DC50 was 100 to 1000 nM in assay [2] (setting [4]) and 10 to 100 nM in assay [2] (setting [3]).

The term IC50 denotes the midpoint of a concentration-inhibition curve. A word on the DC50: it is the concentration at which degradation of the target reaches its halfway point.
